Assay results reported in patent US20230128402A1 (The Trustees of Princeton University, priority 2020, published 2023).

Key:
[1] = target: T1, mALDH1a3 (Mus musculus, UniProt Q9JHW9); experiment: Aldh1a3 enzyme inhibition assay, recombinant mALDH1a3; type: biochemical; details: resorufin fluorescence, 20° C.
T1 construct: made in house; host or cells: E. coli BL21-DE3, pET-Aldh1a3
T1 sequence (Q9JHW9 1-512): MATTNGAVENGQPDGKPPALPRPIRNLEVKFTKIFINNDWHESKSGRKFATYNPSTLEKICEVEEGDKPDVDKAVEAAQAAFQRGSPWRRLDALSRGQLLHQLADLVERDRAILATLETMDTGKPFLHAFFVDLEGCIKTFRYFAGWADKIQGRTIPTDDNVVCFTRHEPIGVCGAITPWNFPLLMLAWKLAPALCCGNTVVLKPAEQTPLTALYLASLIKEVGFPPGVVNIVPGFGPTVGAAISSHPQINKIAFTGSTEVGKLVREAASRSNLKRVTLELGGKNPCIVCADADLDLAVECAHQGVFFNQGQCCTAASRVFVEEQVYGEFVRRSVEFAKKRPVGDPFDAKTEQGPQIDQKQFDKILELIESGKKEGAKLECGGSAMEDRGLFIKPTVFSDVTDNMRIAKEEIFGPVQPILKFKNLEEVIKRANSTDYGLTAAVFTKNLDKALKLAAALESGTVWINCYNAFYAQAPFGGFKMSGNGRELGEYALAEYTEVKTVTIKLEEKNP
From the text: (§1) Recombinant enzyme and inhibitor added immediately before assay. Reaction rate measured by resorufin fluorescence.

[2] = target: T2, ALDH1a3 (Homo sapiens, UniProt P47895); experiment: Aldh1a3 enzyme inhibition assay, recombinant hALDH1a3; type: biochemical; set-up: made in house; host or cells: E. coli BL21-DE3, pET-Aldh1a3; details: resorufin fluorescence, 20° C.
T2 sequence (P47895 1-512): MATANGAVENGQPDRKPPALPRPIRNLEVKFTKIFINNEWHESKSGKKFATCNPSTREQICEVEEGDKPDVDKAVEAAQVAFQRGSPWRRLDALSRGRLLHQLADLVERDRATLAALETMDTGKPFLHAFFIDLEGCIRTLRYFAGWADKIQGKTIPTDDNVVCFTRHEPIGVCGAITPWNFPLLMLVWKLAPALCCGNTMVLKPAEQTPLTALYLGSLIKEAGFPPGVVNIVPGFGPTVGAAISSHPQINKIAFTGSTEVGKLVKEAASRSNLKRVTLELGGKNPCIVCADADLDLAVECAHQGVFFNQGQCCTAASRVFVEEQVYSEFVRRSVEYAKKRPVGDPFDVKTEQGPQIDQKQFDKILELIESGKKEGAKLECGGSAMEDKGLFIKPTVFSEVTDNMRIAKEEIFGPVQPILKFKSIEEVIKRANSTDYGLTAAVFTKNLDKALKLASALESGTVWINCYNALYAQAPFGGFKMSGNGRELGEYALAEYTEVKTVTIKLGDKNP
From the text: as §1

[3] = target: T2, ALDH1a3; experiment: ALDEFLUOR assay in SUM159-M1a-Aldh1a3 cells; type: cell-based; set-up: lentiviral vectors containing either the vector backbone or full-length human Aldh1a3; expressed in transfected cells; host or cells: SUM159-M1a human breast cancer cells, lentiviral pLex vector; details: for Inhi-bitory Activity at 100 nM (%) / Percent of Cells Positive for ALDEFLUOR ™ at 100 nM: SUM159-M1a-Aldh1a3 cells, compound at 100 nM
Protocol: Cells were counted, centrifuged and resuspended at 1,000,000 cells/mL in ALDEFLUOR™ buffer (Stemcell Technologies). ALDEFLUOR™ substrate (Stemcell Technologies, 1:200) and test compound or 1 mM DEAB were added to cell suspension and incubated at 37° C. for 45 minutes with vortexing every 15 minutes. Cells were centrifuged and resuspended in ALDEFLUOR™ buffer with DAPI at 5 μg/mL. Samples were analyzed with the BD LSR2 flow cytometry platform. Gating was performed using DEAB as a negative control.
Gating for background fluorescence was performed using 1 millimolar DEAB as a negative control.
The [inh-min]threshold was set at the lower bound of two standard deviations of control samples, while the IC50 threshold was set at 50% of the average of control samples.
An ALDEFLUOR™ assay was also used to assess the relative activity of several compounds described herein against SUM159-M1a-Aldh1a3 cells.

Molecule | IC50 [1] [µM] | IC50 [2] [µM] | relative potency, ALDEFLUOR activity ([3]; 10 nM, FIG. 6C) | Inhi-bitory Activity at 100 nM (%) [3] [%] | Percent of Cells Positive for ALDEFLUOR ™ at 100 nM [3] [%] | inhibition of ALDH1a3 activity (percentage of ALDEFLUOR-positive cells) ([3]; 100 nM, FIG. 6A)
CC(C)Cc1cnccc1C(=O)Nc1cc2c(cc1F)NC(=O)CC2 [Compound 7] | 0.1 to 0.25 | < 0.1 | nearly twice as potent as MBE 1.5 |  |  | 
Cc1ccc(C(=O)Nc2ccc3c(c2)CCC(=O)N3)c(C)c1 [Compound 12] | > 5 | > 5 |  | 3.3 | 74 | 
3-ethyl-N-(2-oxo-3,4-dihydro-1H-quinolin-6-yl)pyridine-4-carboxamide [Compound 9] | 0.25 to 1 | < 0.1 |  | 83 | 13 | 
Cc1ccccc1C(=O)Nc1ccc2c(c1)CCC(=O)N2 [Compound 13] | 1 to 5 | > 5 |  | 42 | 45 | 
O=C1CCc2cc(NCc3ccccc3)ccc2N1 [Compound 14] | > 5 | > 5 |  | 11 | 68 | 
CCc1cnccc1CNc1cc2c(cc1F)NC(=O)CC2 [Compound 3] | 1 to 5 | 1 to 5 |  | 55 | 34 | 
CCc1cnccc1C(=O)Nc1ccc2c(c1)CCC(=O)N2 [Compound 9, 3-ethyl-N-(2-oxo-3,4-dihydro-1H-quinolin-6-yl)pyridine-4-carboxamide] |  |  |  |  |  | high-affinity compounds for the inhibition of ALDH1a3 activity
Cc1cnccc1C(=O)Nc1cc2c(cc1F)NC(=O)CC2 [Compound 15] | > 5 | > 5 |  | 18 | 63 | 
Cc1ccc(C)c(CNc2ccc3c(c2)CCC(=O)N3)c1 [Compound 10] | 1 to 5 | 1 to 5 |  | 45 | 42 | 
CC1(C)Cc2cc(Nc3cccc(Cl)n3)ccc2NC1=O [Compound 122, 6-[(6-chloro-2-pyridyl)amino]-3,3-dimethyl-1,4-dihydroquinolin-2-one] | > 5 | > 5 |  |  |  | 
CCc1cnccc1C(=O)Nc1ccc2c(c1F)CCC(=O)N2 [Compound 85] | > 5 | > 5 |  |  |  | 
CC1(C)Cc2cc(Nc3ccc(Cl)c(Cl)n3)ccc2NC1=O [Compound 97, 6-[(5,6-dichloro-2-pyridyl)amino]-3,3-dimethyl-1,4-dihydroquinolin-2-one] | > 5 | 1 to 5 |  |  |  | 
N#Cc1cccc2nc(Nc3ccc4c(c3)CCC(=O)N4)ccc12 [Compound 86, 2-[(2-oxo-3,4-dihydro-1H-quinolin-6-yl)amino]quinoline-5-carbonitrile] | 1 to 5 | > 5 |  |  |  | 
CCc1cnccc1C(=O)Nc1ccc2c(c1)CC1(CC1)C(=O)N2 [Compound 61, 3-ethyl-N-(2-oxospiro[1,4-dihydroquinoline-3,1′-cyclopropane]-6-yl)pyridine-4-carboxamide] | 1 to 5 | 0.1 to 0.25 |  |  |  | 
N#Cc1ccc2ccc(Nc3ccc4c(c3)CCC(=O)N4)nc2c1 [Compound 90, 2-[(2-oxo-3,4-dihydro-1H-quinolin-6-yl)amino]quinoline-7-carbonitrile] | > 5 | > 5 |  |  |  | 
CCc1cnccc1C(=O)NCc1ccc2c(c1)CCC(=O)N2 [Compound 28, 3-ethyl-N-[(2-oxo-3,4-dihydro-1H-quinolin-6-yl)methyl]pyridine-4-carboxamide] | > 5 | > 5 |  |  |  | 
CCc1cnccc1/C=C/c1ccc2c(c1)CC(C)(C)C(=O)N2 [Compound 43, 6-[(E)-2-(3-ethyl-4-pyridyl)vinyl]-3,3-dimethyl-1,4-dihydroquinolin-2-one] | 1 to 5 | 0.25 to 1 |  |  |  | 
